# Measured values published in ChEMBL document CHEMBL4825723, “Synthesis of new methoxy derivatives of trans 2,3-diaryl-2,3-dihydrobenzofurans and evaluation of their anti-inflammatory activity” (Bioorg Med Chem Lett, 2021).
# Activity calls are given as the source filed them. No cut-off for these calls is given here.
# How the values were obtained:
# U-937 [1] = assay: Cytotoxicity against human U-937 cells assessed as cell viability at 0.01 uM measured after 72 hrs; assay type: cell-based; conditions: u-937, 72 h
# [2] = molecular target: T1, Nuclear factor NF-kappa-B complex (Homo sapiens) (UniProt Q00653+P19838+Q04206); assay: Inhibition of NF-kappaB in human U-937 cells assessed as reduction in LPS-induced p65 expression at 0.01 uM treated followed by 3 hrs LPS stimulation by Western blot analysis; assay type: cell-based
# [3] = molecular target: T1, Nuclear factor NF-kappa-B complex (Homo sapiens); assay: Inhibition of NF-kappaB in human U-937 cells assessed as reduction in translocation of p65 NF-kappaB in from cytosol to nucleus at 0.01 uM treated followed by 3 hrs LPS stimulation by Western blot analysis; assay type: cell-based
# [4] = molecular target: T1, Nuclear factor NF-kappa-B complex (Homo sapiens); assay: Inhibition of NF-kappaB in human U-937 cells assessed as reduction in translocation of p65 NF-kappaB in from cytosol to nucleus at 0.01 uM treated followed by 3 hrs LPS stimulation hrs by immunohistochemical staining/confocal microscopy; assay type: cell-based
# U-937 [5] = assay: Anti-inflammatory activity in human U-937 cells assessed as reduction in LPS-induced ROS production at 0.01 uM followed by LPS stimulation and measured after 24 hrs relative to control; assay type: functional, cell-based
# U-937 [6] = assay: Anti-inflammatory activity in human U-937 cells assessed as reduction in LPS-induced NO production at 0.01 uM followed by LPS stimulation and measured after 24 hrs relative to control; assay type: functional, cell-based
# [7] = molecular target: T1, Nuclear factor NF-kappa-B complex (Homo sapiens); assay: Inhibition of NF-kappaB activation in human U-937 cells assessed as reduction in LPS-induced ACLY activity after 48 hrs; assay type: cell-based
# [8] = molecular target: T1, Nuclear factor NF-kappa-B complex (Homo sapiens); assay: Inhibition of NF-kappaB activation in human U-937 cells assessed as reduction in LPS-induced PGE2 production after 48 hrs; assay type: cell-based
# T1 sequence (P19838 whole entry, looked up): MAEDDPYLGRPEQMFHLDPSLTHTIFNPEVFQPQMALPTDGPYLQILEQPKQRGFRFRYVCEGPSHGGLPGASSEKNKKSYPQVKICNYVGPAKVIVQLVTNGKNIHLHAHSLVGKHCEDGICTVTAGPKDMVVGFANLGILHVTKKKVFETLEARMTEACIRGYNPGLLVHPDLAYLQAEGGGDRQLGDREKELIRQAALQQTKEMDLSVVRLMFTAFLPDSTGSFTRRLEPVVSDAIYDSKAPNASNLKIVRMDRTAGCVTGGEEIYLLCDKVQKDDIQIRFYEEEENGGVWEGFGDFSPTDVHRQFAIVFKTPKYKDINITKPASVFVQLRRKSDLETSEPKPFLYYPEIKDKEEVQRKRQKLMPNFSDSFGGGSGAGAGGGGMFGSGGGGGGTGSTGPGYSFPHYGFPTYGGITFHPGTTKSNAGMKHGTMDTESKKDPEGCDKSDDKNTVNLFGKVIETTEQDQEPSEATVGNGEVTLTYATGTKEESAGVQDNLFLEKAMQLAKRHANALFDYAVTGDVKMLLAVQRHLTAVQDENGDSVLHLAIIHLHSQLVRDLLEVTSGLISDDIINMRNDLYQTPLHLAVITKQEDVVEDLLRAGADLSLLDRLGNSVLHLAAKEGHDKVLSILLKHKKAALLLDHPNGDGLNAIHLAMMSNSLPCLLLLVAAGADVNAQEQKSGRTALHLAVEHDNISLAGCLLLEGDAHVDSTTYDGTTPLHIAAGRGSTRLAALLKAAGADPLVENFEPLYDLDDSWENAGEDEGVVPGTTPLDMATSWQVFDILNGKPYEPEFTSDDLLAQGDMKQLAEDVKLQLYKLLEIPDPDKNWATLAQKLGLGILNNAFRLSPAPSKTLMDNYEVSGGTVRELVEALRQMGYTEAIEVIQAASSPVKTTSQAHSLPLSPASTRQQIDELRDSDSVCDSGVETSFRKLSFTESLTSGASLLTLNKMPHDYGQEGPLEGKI
# T1 sequence (Q00653 whole entry, looked up): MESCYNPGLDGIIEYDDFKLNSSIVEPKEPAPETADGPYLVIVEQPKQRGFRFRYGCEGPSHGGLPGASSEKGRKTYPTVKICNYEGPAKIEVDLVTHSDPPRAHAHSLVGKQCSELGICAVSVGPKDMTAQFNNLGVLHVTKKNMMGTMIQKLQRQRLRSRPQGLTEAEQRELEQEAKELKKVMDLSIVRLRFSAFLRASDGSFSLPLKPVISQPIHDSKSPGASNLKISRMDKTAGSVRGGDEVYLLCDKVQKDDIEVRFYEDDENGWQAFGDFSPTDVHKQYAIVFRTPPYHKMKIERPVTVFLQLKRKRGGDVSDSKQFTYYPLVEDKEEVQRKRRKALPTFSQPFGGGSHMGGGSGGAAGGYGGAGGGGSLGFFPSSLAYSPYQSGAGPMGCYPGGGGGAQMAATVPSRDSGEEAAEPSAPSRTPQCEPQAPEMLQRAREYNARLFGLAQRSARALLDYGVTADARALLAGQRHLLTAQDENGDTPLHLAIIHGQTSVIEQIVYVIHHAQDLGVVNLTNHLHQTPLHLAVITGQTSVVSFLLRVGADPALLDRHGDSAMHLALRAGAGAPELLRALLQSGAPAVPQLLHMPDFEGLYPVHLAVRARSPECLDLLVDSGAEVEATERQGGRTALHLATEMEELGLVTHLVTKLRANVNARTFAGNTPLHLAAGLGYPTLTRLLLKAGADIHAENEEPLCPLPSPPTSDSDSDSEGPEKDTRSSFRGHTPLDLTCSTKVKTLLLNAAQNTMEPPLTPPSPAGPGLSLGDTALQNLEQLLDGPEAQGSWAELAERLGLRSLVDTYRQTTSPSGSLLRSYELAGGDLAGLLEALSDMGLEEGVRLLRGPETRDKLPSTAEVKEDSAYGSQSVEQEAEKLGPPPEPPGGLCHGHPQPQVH
# T1 sequence (Q04206 whole entry, looked up): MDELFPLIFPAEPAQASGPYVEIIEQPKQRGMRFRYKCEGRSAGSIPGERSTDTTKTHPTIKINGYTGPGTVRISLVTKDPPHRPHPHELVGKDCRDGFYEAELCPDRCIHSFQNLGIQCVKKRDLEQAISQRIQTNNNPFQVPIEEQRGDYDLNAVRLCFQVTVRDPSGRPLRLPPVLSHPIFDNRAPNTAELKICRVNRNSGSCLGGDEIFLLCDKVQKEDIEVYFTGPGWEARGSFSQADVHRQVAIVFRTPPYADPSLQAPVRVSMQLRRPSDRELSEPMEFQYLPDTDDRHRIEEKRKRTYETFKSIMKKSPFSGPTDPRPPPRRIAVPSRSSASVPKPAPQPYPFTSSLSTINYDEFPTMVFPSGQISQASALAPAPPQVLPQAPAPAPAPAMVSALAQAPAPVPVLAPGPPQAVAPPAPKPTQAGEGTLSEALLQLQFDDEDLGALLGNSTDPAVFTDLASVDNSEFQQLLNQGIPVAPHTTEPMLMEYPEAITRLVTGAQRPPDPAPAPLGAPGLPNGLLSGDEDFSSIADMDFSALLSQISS
SMILES,Inhibition of LPS-induced p65 expression [2],inhibition [3],inhibition [4],inhibition ([7]; concentration not given here) [%],inhibition [8],inhibition ([8]; concentration not given here) [%],inhibition [7],Activity (U-937 [1]),Activity (U-937 [5]),Activity (U-937 [6])
COC1(c2ccc(Br)cc2)c2ccccc2OC1c1ccccc1 (mixture of isomers),Active,,,,,,,Toxic,,
CO[C@@]1(c2ccccc2)c2ccccc2O[C@H]1c1ccccc1,Active,Active,Active,,,,,Non-Toxic,Active,Active
COc1ccc2c(c1)C(c1cc(Br)cc(Br)c1)C(c1ccccc1)O2 (stereo not given),,,,,,,,Non-Toxic,,
COc1ccc2c(c1)[C@@H](c1ccc(Br)cc1)[C@H](c1ccccc1)O2,Active,Active,Active,,,,,Non-Toxic,Active,Active
COc1ccc2c(c1)[C@@H](c1ccccc1)[C@H](c1ccccc1)O2 [listing 1 of 2 here],,,,,,,,Non-Toxic,,
COc1ccc2c(c1)[C@@H](c1ccc(Br)cc1)[C@@H](c1ccccc1)O2,Active,Active,Active,,,,,Non-Toxic,Active,Active

# Continued, in another order:
Inhibition of LPS-induced p65 expression [2],inhibition [3],inhibition [4],inhibition ([7]; concentration not given here) [%],inhibition [8],inhibition ([8]; concentration not given here) [%],inhibition [7],SMILES,Activity (U-937 [1]),Activity (U-937 [5]),Activity (U-937 [6])
Active,Active,Active,32,Active,,,COc1ccc2c(c1)C(c1ccccc1)C(c1ccccc1)O2 (racemic),,Active,Active
Active,Active,Active,,,,,"COc1ccc2c(c1)[C@@H](c1ccccc1)[C@H](c1ccccc1)O2 (single isomer, unassigned)",,,
Active,Active,Active,43,,28,,COc1ccc2c(c1)[C@@H](c1ccccc1)[C@H](c1ccccc1)O2 (mixture of isomers),,Active,Active
,Active,Active,,Active,,Active,COc1ccc2c(c1)[C@@H](c1ccccc1)[C@H](c1ccccc1)O2 [listing 2 of 2 here],,Active,Active
